This note sets out measurements from ChEMBL document CHEMBL3045401, “(Naphthalen-1-yloxy)-acetic acid benzylidene/(1-phenyl-ethylidene)-hydrazide derivatives: synthesis, antimicrobial evaluation, and QSAR studies” (Med Chem Res, 2012).

Values after ≈ are worked out from the molar mass of the structure shown. Where only a bound is given, the exact number is not on record here.

In series [1] the test system is Human immunodeficiency virus 1. As to the kind of experiment: Antiviral activity against Human immunodeficiency virus 1 IIIB infected human MT4 cells assessed as inhibition of virus-induced cytopathic effect after 4 days by MTT assay. The following applies: MT4, 96 h. It is filed as functional, organism-based. A general note: Cytopathic effects are the visible damage that an infection or toxin causes in cultured cells.

Series [2] has as its system Human immunodeficiency virus 2. In words: Antiviral activity against Human immunodeficiency virus type 2 (ISOLATE ROD) infected human MT4 cells assessed as inhibition of virus-induced cytopathic effect after 4 days by MTT assay. The class given is functional, organism-based. The following applies: Human immunodeficiency virus 2, ISOLATE ROD, MT4, 96 h.
Series [3] is described as follows: Cytotoxicity against HEL assessed as minimum concentration required to cause morphological changes. The class given is cell-based. The following applies: human, HEL cells.
Series [4] has as its system Candida albicans. As to the kind of experiment: Antimicrobial activity against Candida albicans after 2 days by serial dilution method. The class given is functional.
In series [5] the test system is Aspergillus niger. As to the kind of experiment: Antimicrobial activity against Aspergillus niger after 7 days by serial dilution method. The class given is functional.
The nature of series [6]: Cytotoxicity against HEL. The class given is cell-based. The following applies: human, HEL cells.
Series [7] can be described thus: Octanol-water partition coefficient, log P of the compound. The class given is physicochemical.
The test system of series [8] is Bacillus subtilis. In words: Antimicrobial activity against Bacillus subtilis after 24 hr by serial dilution method. It is filed as functional.
Series [9] has as its system Human alphaherpesvirus 3. In words: Antiviral activity against thymidine kinase-positive Human herpesvirus 3 infected in HEL cells assessed as inhibition of viral plaque formation. The class given is functional, organism-based. The settings on record: Human alphaherpesvirus 3, HEL.
Series [10] has as its system Staphylococcus aureus. In words: Antimicrobial activity against Staphylococcus aureus after 24 hr by serial dilution method. The class given is functional.
Series [11] concerns Human alphaherpesvirus 3. As to the kind of experiment: Antiviral activity against thymidine kinase-deficient Human herpesvirus 3 infected in HEL cells assessed as inhibition of viral plaque formation. The settings on record: Human alphaherpesvirus 3, HEL. It is filed as functional, organism-based.
The nature of series [12]: Cytotoxicity against Homo sapiens (human) MT4 cells after 4 days by MTT assay. It is filed as cell-based. For orientation: Formazan colour is commonly taken as a measure of viable cells.
For series [13], the system named is Escherichia coli. As to the kind of experiment: Antimicrobial activity against Escherichia coli after 24 hr by serial dilution method. The class given is functional.
Series [14] concerns Human betaherpesvirus 5. As to the kind of experiment: Antiviral activity against Human herpesvirus 5 Davis infected human HEL cells assessed as reduction in the virus plaque formation. The settings on record: Human betaherpesvirus 5, Davis. It is filed as functional, organism-based.
The test system of series [15] is Human betaherpesvirus 5. In words: Antiviral activity against Human herpesvirus 5 strain AD169 infected human HEL cells assessed as reduction in the virus plaque formation. It is filed as functional, organism-based. The following applies: Human betaherpesvirus 5, AD169, HEL.

Consider `C/C(=N\NC(=O)COc1cccc2ccccc12)c1ccc([N+](=O)[O-])cc1`, for which the EC50 in [1] was greater than 89.3 µg/mL; in series [2], greater than 89.3 µg/mL; in [9], greater than 20 µg/mL; in [11], greater than 20 µg/mL; in [14], greater than 20 µg/mL; in [15] it was greater than 20 µg/mL. For the same molecule, in [3], the MCC came to 100 µg/mL. The “-logMIC” value in series [4] was found to be 1.46; in series [5] it was 0.86; in [8], 1.16; in series [10] it was 1.16; in [13], 1.46. Moreover, in series [6], the CC50 was greater than 100 µg/mL. Besides, in series [7], the logP was found to be 3.37. The molecule also came in with a CC50 at 96 h in series [12] of 89.3 µg/mL (≈ 246 µM).
Turning to `O=C(COc1cccc2ccccc12)N/N=C/c1cccc(Br)c1`, the EC50 in series [1] was greater than 87.4 µg/mL; in [2], greater than 87.4 µg/mL; in [9], greater than 20 µg/mL; in series [11], greater than 20 µg/mL; in [14], greater than 20 µg/mL; in series [15], greater than 20 µg/mL. Also, the MCC in series [3] was 100 µg/mL. The “-logMIC” value turned out to be 0.58 in series [4]; 0.58 in series [5]; 0.58 in [8]; 1.79 in series [10]; 0.58 in series [13]. This molecule also showed a CC50 in series [6] of 48.6 µg/mL (≈ 127 µM). In addition, the log partition coefficient (logP) in [7] is 4.81. Further, in [12], the CC50 at 96 h is 87.4 µg/mL (≈ 228 µM).
As to `O=C(COc1cccc2ccccc12)N/N=C/c1ccccc1[N+](=O)[O-]`, the EC50 in series [1] was greater than 12.2 µg/mL; in [2], greater than 12.2 µg/mL; in series [9], greater than 4 µg/mL; in series [11], greater than 4 µg/mL; in [14] it was greater than 4 µg/mL; in series [15], greater than 4 µg/mL. Further, the MCC in series [3] is 20 µg/mL. The “-logMIC” value in series [4] is 1.45; in [5] it was 1.45; in series [8] it was 1.14; in series [10], 1.45; in series [13], 1.45. For the same molecule, the midpoint of cytotoxicity in series [6], the CC50, lay at 100 µg/mL (≈ 286 µM). For the same molecule, the logP in [7] came out at 3.97. For the same molecule, in [12], half-maximal cytotoxicity (CC50 at 96 h) was put at 12.2 µg/mL (≈ 34.9 µM).

The EC50 is the concentration needed to bring the measured effect to its halfway point. The CC50 is the concentration giving 50% cytotoxicity. For orientation: logP means a log measure of how a compound divides between an organic and an aqueous phase. Lower therefore signals a more hydrophilic compound.
